Laboratory results reported in publication PMC10459693, “Toward Stability Enhancement of NTS1R-Targeted Radioligands: Structural Interventions on [^99mTc]Tc-DT1” (Pharmaceutics, 2023).
Like-named read-outs stand apart in the source and are kept apart here. Peptide text beside a SMILES is read from it. * marks the point of attachment. Palmitoyl = CCCCCCCCCCCCCCCC(=O)*; X1 = NCCNCC(CNCCN)C(=O)*

Experiments:
[1] = Biodistribution in SCID mice bearing AsPC-1 xenografts; assay type: in vivo; conditions: male, mouse, iv, total radioactivity; for tissue uptake at 4 h: 4 h pi; for tissue uptake at 24 h: 24 h pi
Procedure: Twenty male severe combined immunodeficiency (SCID) mice (23.1 ± 1.6 g body weight, six weeks of age on arrival day; NCSR “Demokritos” Animal House, Athens, Greece) were used in the biodistribution experiments. Animals were subcutaneously inoculated in their right flanks with a sterile suspension of freshly harvested AsPC-1 cells (150 μL, 5 × 10^6 cells/animal), and 3–4 weeks later, they developed well-palpable tumors at the implantation sites. During this period, mice were housed in suitable facilities under sterile conditions with 12 h day/night cycles and were provided with sterilized chow food and drinking water ad libitum. At the date of the experiment, animals were randomly divided in groups of four and received through the tail vein a bolus of [^99mTc]Tc-DT9 (100 μL, 3 pmol in vehicle: PBS/EtOH 9/1 v/v with the addition of 0.1% Tween-80) plus vehicle (100 μL; controls at 4 and 24 h pi) or plus Lis (100 μg in 100 μL vehicle); the latter groups had additionally received per os 30 min in advance Entresto® (200 μL, 12 mg; Entresto®+Lis groups at 4 and 24 h pi). A further 4 h group of animals was treated with Entresto®, and 30 min later, mice were co-injected with excess NT and Lis (100 μg NT and 100 μg Lis in 100 μL vehicle—NTS1R block). At the predetermined time intervals, mice were euthanized and weighted, and their blood, organs, and tissue samples of choice as well as the implanted tumors were collected and weighted. Sample radioactivity was measured on the γ-counter together with proper standards of the injected dose. Results were calculated as percentage of injected activity per gram tissue (%IA/g) and provided as mean %IA/g values ± sd. For comparisons, a two-way ANOVA with Tukey’s post hoc analysis was adopted (PRISM^TM 6.0 GraphPad Software, San Diego, CA, USA). p-values < 0.05 were considered statistically significant.

[2] = Radioligand metabolic stability in peripheral mouse blood (radio-HPLC); assay type: in vivo, mice; conditions: peripheral mouse blood 5 min pi
Procedure: For the assessment of in vivo stability of [^99mTc]Tc-DT7/8/9, healthy Swiss Albino mice (33 animals, >8 weeks of age, body weight: 30 ± 5 g) were obtained from NCSR “Demokritos” Animal House (Athens, Greece). Animals were injected through the tail vein with the radioligand (100 μL, 2 nmol in vehicle: PBS/EtOH 9/1 v/v, with the addition of 0.1% Tween-80 in the case of [^99mTc]Tc-DT9) plus vehicle (100 μL; controls) or plus Lis (100 μg in 100 μL vehicle; Lis). Additional mice groups received per os a suspension of Entresto® (200 μL, 12 mg, 30 min prior to the i.v. injection of the radioligand plus vehicle—Entresto® group; or the i.v. injection of the radioligand plus Lis—Entresto®+Lis group). Animals were euthanized 5 min post injection (pi), and blood samples were drawn from the heart via a prechilled insulin syringe and transferred rapidly into pre-cooled 1.5 mL LoBind Eppendorf tubes containing EDTA (20 μL, 0.1 mM EDTA), and the collected radioactivity was measured in a dose calibrator (CURIEMENTOR 4, PTW Freiburg-GmbH; Freiburg, Germany). The tubes were centrifuged for 10 min at 2000× g at 4 °C in a Hettich Universal 320 R centrifuge (Tuttlingen, Germany). The plasma was collected, diluted in a 1:1 v/v ratio with MeCN, and thoroughly mixed; sample tubes were again centrifuged for 10 min at 15000× g at 4 °C. The supernatant was collected and the volume reduced to 50–100 μL under a gentle flux of N2 and mild heating at 60 °C. […] Sample activity was measured in the dose calibrator, and aliquots were analyzed by radio-HPLC on a Symmetry Shield RP18 cartridge column (5 μm, 3.9 mm × 20 mm; Waters, Eschborn, Germany) eluted at a flow rate of 1 mL/min with the linear gradient (system 2): from 100% A/0% B to 60% A/40% B in 40 min (A: 0.1% aqueous TFA; B: MeCN). […] The tR of intact [^99mTc]Tc-DT7, [^99mTc]Tc-DT8, or [^99mTc]Tc-DT9 was determined by co-injection of blood samples processed as above with an aliquot of the labeling solution. […]

[3] = AsPC-1 tumor, 3 pmol, Controls, read-out: uptake in AsPC-1 Tumor
[4] = AsPC-1 tumor, Entresto+Lis, read-out: uptake in AsPC-1 Tumor
[5] = blood, 3 pmol, Controls, read-out: uptake in Blood
[6] = blood, Entresto+Lis, read-out: uptake in Blood
[7] = heart, 3 pmol, Controls, read-out: uptake in Heart
[8] = heart, Entresto+Lis, read-out: uptake in Heart
[9] = intestines, 3 pmol, Controls, read-out: uptake in Intestines
[10] = intestines, Entresto+Lis, read-out: uptake in Intestines
[11] = kidneys, 3 pmol, Controls, read-out: uptake in Kidneys
[12] = kidneys, Entresto+Lis, read-out: uptake in Kidneys
[13] = liver, 3 pmol, Controls, read-out: uptake in Liver
[14] = liver, Entresto+Lis, read-out: uptake in Liver
[15] = lungs, 3 pmol, Controls, read-out: uptake in Lungs
[16] = lungs, Entresto+Lis, read-out: uptake in Lungs
[17] = muscle, 3 pmol, Controls, read-out: uptake in Muscle
[18] = muscle, Entresto+Lis, read-out: uptake in Muscle
[19] = pancreas, 3 pmol, Controls, read-out: uptake in Pancreas
[20] = pancreas, Entresto+Lis, read-out: uptake in Pancreas
[21] = spleen, 3 pmol, Controls, read-out: uptake in Spleen
[22] = spleen, Entresto+Lis, read-out: uptake in Spleen
[23] = stomach, 3 pmol, Controls, read-out: uptake in Stomach
[24] = stomach, Entresto+Lis, read-out: uptake in Stomach

SMILES: CCCCCCCCCCCCCCCC(=O)NCCCC[C@H](NC(=O)C(CNCCN)CNCCN)C(=O)N[C@@H](CCCNC(=N)N)C(=O)N[C@@H](CCCNC(=N)N)C(=O)N1CCC[C@H]1C(=O)N[C@@H](Cc1ccc(O)cc1)C(=O)N[C@H](C(=O)N[C@@H](CC(C)C)C(=O)O)[C@@H](C)CC [[^99mTc]Tc-DT9, metal not drawn] (X1-K(Palmitoyl)RRPYIL-OH)
- tissue uptake at 4 h [1, 3]: 6.15 ± 0.92 %ID/g
- tissue uptake at 24 h [1, 3]: 3.32 ± 0.35 %ID/g
- tissue uptake at 4 h ([1]; AsPC-1 tumor, Block (Entresto+Lis plus excess NT), read-out: uptake in AsPC-1 Tumor): 3.68 ± 0.92 %ID/g
- tissue uptake at 4 h [1, 4]: 5.24 ± 0.27 %ID/g
- tissue uptake at 24 h [1, 4]: 2.84 ± 0.43 %ID/g
- tissue uptake at 4 h [1, 5]: 4.63 ± 0.55 %ID/g
- tissue uptake at 4 h ([1]; blood, 3 pmol, all animal groups, read-out: radioactivity levels in the blood): > 4 %ID/g
- tissue uptake at 24 h [1, 5]: 0.68 ± 0.18 %ID/g
- tissue uptake at 4 h ([1]; blood, Block (Entresto+Lis plus excess NT), read-out: uptake in Blood): 4.25 ± 0.37 %ID/g
- tissue uptake at 4 h [1, 6]: 4.32 ± 0.42 %ID/g
- tissue uptake at 24 h [1, 6]: 0.7 ± 0.06 %ID/g
- tissue uptake at 4 h [1, 7]: 3.12 ± 0.43 %ID/g
- tissue uptake at 24 h [1, 7]: 0.64 ± 0.11 %ID/g
- tissue uptake at 4 h ([1]; heart, Block (Entresto+Lis plus excess NT), read-out: uptake in Heart): 2.79 ± 0.47 %ID/g
- tissue uptake at 4 h [1, 8]: 2.85 ± 2.48 %ID/g
- tissue uptake at 24 h [1, 8]: 0.71 ± 0.06 %ID/g
- tissue uptake at 4 h [1, 9]: 13 ± 4.6 %ID/g
- tissue uptake at 24 h [1, 9]: 4.26 ± 0.61 %ID/g
- tissue uptake at 4 h ([1]; intestines, Block (Entresto+Lis plus excess NT), read-out: uptake in Intestines): 6.27 ± 0.72 %ID/g
- tissue uptake at 4 h [1, 10]: 7.9 ± 0.88 %ID/g
- tissue uptake at 24 h [1, 10]: 5.37 ± 1.61 %ID/g
- tissue uptake at 4 h [1, 11]: 9.53 ± 1.18 %ID/g
- tissue uptake at 24 h [1, 11]: 3.81 ± 0.54 %ID/g
- tissue uptake at 4 h ([1]; kidneys, Block (Entresto+Lis plus excess NT), read-out: uptake in Kidneys): 8.56 ± 0.87 %ID/g
- tissue uptake at 4 h [1, 12]: 9.15 ± 0.62 %ID/g
- tissue uptake at 24 h [1, 12]: 4.63 ± 0.15 %ID/g
- tissue uptake at 4 h [1, 13]: 29.6 ± 3.77 %ID/g
- tissue uptake at 24 h [1, 13]: 12.9 ± 1.66 %ID/g
- tissue uptake at 4 h ([1]; liver, Block (Entresto+Lis plus excess NT), read-out: uptake in Liver): 30.9 ± 4.25 %ID/g
- tissue uptake at 4 h [1, 14]: 28.4 ± 2.48 %ID/g
- tissue uptake at 24 h [1, 14]: 17 ± 0.94 %ID/g
- tissue uptake at 4 h [1, 15]: 8.8 ± 1.42 %ID/g
- tissue uptake at 24 h [1, 15]: 3.42 ± 0.67 %ID/g
- tissue uptake at 4 h ([1]; lungs, Block (Entresto+Lis plus excess NT), read-out: uptake in Lungs): 8.46 ± 1.26 %ID/g
- tissue uptake at 4 h [1, 16]: 7.61 ± 0.64 %ID/g
- tissue uptake at 24 h [1, 16]: 3.62 ± 0.94 %ID/g
- tissue uptake at 4 h [1, 17]: 0.93 ± 0.13 %ID/g
- tissue uptake at 24 h [1, 17]: 0.22 ± 0.02 %ID/g
- tissue uptake at 4 h ([1]; muscle, Block (Entresto+Lis plus excess NT), read-out: uptake in Muscle): 0.82 ± 0.11 %ID/g
- tissue uptake at 4 h [1, 18]: 0.81 ± 0.04 %ID/g
- tissue uptake at 24 h [1, 18]: 0.24 ± 0.01 %ID/g
- tissue uptake at 4 h [1, 19]: 2.1 ± 0.3 %ID/g
- tissue uptake at 24 h [1, 19]: 0.75 ± 0.17 %ID/g
- tissue uptake at 4 h ([1]; pancreas, Block (Entresto+Lis plus excess NT), read-out: uptake in Pancreas): 1.84 ± 0.41 %ID/g
- tissue uptake at 4 h [1, 20]: 1.85 ± 0.18 %ID/g
- tissue uptake at 24 h [1, 20]: 0.8 ± 0.07 %ID/g
- tissue uptake at 4 h [1, 21]: 6.82 ± 1.11 %ID/g
- tissue uptake at 24 h [1, 21]: 3.42 ± 0.54 %ID/g
- tissue uptake at 4 h ([1]; spleen, Block (Entresto+Lis plus excess NT), read-out: uptake in Spleen): 6.18 ± 1.37 %ID/g
- tissue uptake at 4 h [1, 22]: 5.47 ± 0.47 %ID/g
- tissue uptake at 24 h [1, 22]: 4.47 ± 0.83 %ID/g
- tissue uptake at 4 h [1, 23]: 3.09 ± 1.06 %ID/g
- tissue uptake at 24 h [1, 23]: 1.73 ± 0.5 %ID/g
- tissue uptake at 4 h ([1]; stomach, Block (Entresto+Lis plus excess NT), read-out: uptake in Stomach): 2.06 ± 0.47 %ID/g
- tissue uptake at 4 h [1, 24]: 2.27 ± 0.38 %ID/g
- tissue uptake at 24 h [1, 24]: 1.56 ± 0.31 %ID/g
- intact radioligand ([2]; Control): 98.06 ± 1.18 (n = 3) %
- intact radioligand ([2]; Entresto): 97.33 ± 1.7 (n = 3) %
- intact radioligand ([2]; Entresto+Lis): 93.72 ± 3.7 (n = 3) %
